The values below come from patent USRE30241E, “Esters of 3-(hydroxy or hydroxymethyl)-4-hydroxyphenyl aminomethyl ketones” (Sterling Drug Inc., priority 1970, dated 1980).

Each structure is given as a SMILES string. Where a name gives a salt, the structure may show the parent alone. Read-outs that look alike come from different tables or passages of the source.

The test has as its system carbachol- or histamine-induced bronchoconstriction. Put plainly: Bronchodilator Test Method I, anesthetized dog, intravenous activity. It is filed as in vivo. The conditions noted are these: Canis lupus familiaris, read-out: Bronchodilatation; for inhibition in vivo at 0.095 mg/kg: 95 mcg/kg i.v.; for inhibition in vivo at 0.19 mg/kg: 190 mcg/kg i.v.; for inhibition in vivo at 0.38 mg/kg: 380 mcg/kg i.v.; for inhibition in vivo at 0.014 mg/kg: 14 mcg/kg i.v.; for inhibition in vivo at 0.056 mg/kg: 56 mcg/kg i.v.; for inhibition in vivo at 0.294 mg/kg: 294 mcg/kg i.v.; for inhibition in vivo at 1.176 mg/kg: 1176 mcg/kg i.v.; for inhibition in vivo at 0.147 mg/kg: 147 mcg/kg i.v.; for inhibition in vivo at 0.152 mg/kg: 152 mcg/kg i.v.; for inhibition in vivo at 0.304 mg/kg: 304 mcg/kg i.v.; for inhibition in vivo at 0.075 mg/kg: 75 mcg/kg i.v.; for inhibition in vivo at […]: 150 mcg/kg i.v.; for inhibition in vivo at 0.3 mg/kg: 300 mcg/kg i.v. The procedure:
Bronchodilator activity was tested in anesthetized dogs (Test Method I) and in vitro on the perfused guinea pig lung (Test Method II), using the following pharmacological test procedures
Male and female dogs weighing 9-18 kg. each were anesthetized with pentobarbital sodium (30 mg./kg. i.v.). Each animal, with thorax opened at the midsternum, was maintained under artificial ventilation using a constant volume pump (250 ml./stroke; 10 to 12 strokes per minute) attached to the tracheal cannula. The flow of air was controlled by a glass or plastic valve which closed and opened respectively on inflow and outflow of the air to and from the tracheal cannula. Bronchoconstriction and/or bronchodilatation were measured from changes in the basal airway pressure reflected by a transducer attached to the sidearm of the cannula relayed to a polygraph.
Control bronchoconstrictions were induced by intravenous injections of carbachol (choline chloride carbamate) in doses ranging from 4 to 6 micrograms per kilogram or histamine diphosphate in doses ranging from 35 to 45 micrograms per kilogram.
Solutions of the test compounds were prepared in distilled water or in saline (for infusion). […] These solutions were then tested for bronchodilator activity in three ways, viz. (1) by mixing a graded dose of test compound with the constant does of carbachol or histamine in a syringe and injecting the mixture into the femoral vein of the dog, (2) by producing the bronchoconstriction first and injecting the test compound at the time of maximum constriction, and (3) by injecting the test compound first followed by carbachol or histamine in 1-10 minutes. Injections were repeated at 20-30 minutes. Bronchodilator values were obtained by measuring the areas under the response polygraph tracings (the first 5 munite period) of carbachol or histamine controls and of the experimentals using a planimeter. Decrease in the area thus measured was expressed as a percent bronchodilatation in reference to the area of control carbachol or histamine constriction. The mean bronchodilatations (the reductions in constrictions) were plotted against the doses administered and the mean effective dose (ED50) was estimated in micrograms/kilogram from the does-response curves. Blood pressure recording was taken from the femoral artery using an arterial transducer relayed to a polygraph.

As for `Cc1ccccc1C(=O)Oc1ccc(C(O)CNC(C)(C)C)cc1OC(=O)c1ccccc1C` (stereo not drawn) [Example 111, 3,4-bis(o-toluyloxy)-alpha-(tert-butylaminomethyl)benzyl alcohol methanesulfonate], the inhibition in vivo at 0.0095 mg/kg (1 min, 9.5 mcg/kg i.v., 1-2 min) is 0%. Also, the inhibition in vivo at 0.095 mg/kg is, setting by setting: (1 min, 1-2 min) 34%; (0.5 h, 30 min) 36%; (2 h, 120 min) 32%; (3 h, 180 min) 48%; (4 h, 240 min) 41%; (5 h, 300 min) 50%. In addition, the inhibition in vivo at 0.19 mg/kg runs as follows: (1 min, 1-2 min) 27%; (1 h, 60 min) 18%; (2 h, 120 min) 31%; (3 h, 180 min) 35%; (4 h, 240 min) 41%; (5 h, 300 min) 25%. Further, the inhibition in vivo at 0.38 mg/kg is 33% (1 min, 1-2 min); 53% (0.5 h, 30 min); 55% (2 h, 120 min); 38% (3 h, 180 min). The inhibition in vivo at 0.0475 mg/kg (2 h, 47.5 mcg/kg i.v., 120 min) is 0%.

Take `COc1ccc(CC(=O)Oc2ccc(C(O)CNC(C)(C)C)cc2OC(=O)Cc2ccc(OC)cc2)cc1` (stereo not drawn) [Example 118, 3,4-bis(p-methoxyphenylacetoxy)-alpha-(tert-butylaminomethyl)benzyl alcohol hydrochloride]: the inhibition in vivo at 0.014 mg/kg (5 min, 5 min) was determined as 68%; the inhibition in vivo at 0.014 mg/kg (0.5 h, 30 min) came out at 61%; the inhibition in vivo at 0.014 mg/kg (1 h, 60 min) was 35%; the inhibition in vivo at 0.014 mg/kg (2 h, 120 min) was determined as 7%. Further, the inhibition in vivo at 0.056 mg/kg is, setting by setting: (5 min, 5 min) 100%; (0.5 h, 30 min) 60%; (1 h, 60 min) 45%; (2 h, 120 min) 12%.

Take `CNCC(O)c1ccc(OC(=O)c2ccc(C)cc2)c(OC(=O)c2ccc(C)cc2)c1` (stereo not drawn) [Example 126, 3,4-bis(p-toluyloxy)-alpha-(methylaminomethyl)benzyl alcohol methanesulfonate]: the inhibition in vivo at 0.294 mg/kg by setting is: (1 min, 1-2 min) 13%; (0.5 h, 30 min) 8%; (1 h, 60 min) 17%. Also, the inhibition in vivo at 1.176 mg/kg stood at 100% (1 min, 1-2 min); 47% (0.5 h, 30 min); 20% (1 h, 60 min). The inhibition in vivo at 0.147 mg/kg by setting is: (0.5 h, 30 min) 27%; (1 h, 60 min) 15%.

As for `CCC(NC(C)C)C(O)c1ccc(OC(=O)c2ccc(C)cc2)c(OC(=O)c2ccc(C)cc2)c1` (stereo not drawn) [Example 132, 3,4-bis(p-toluyloxy)-alpha-[1-(isopropylamino)propyl]benzyl alcohol hydrochloride], the inhibition in vivo at 0.152 mg/kg is, setting by setting: (5 min, 5 min) 67%; (0.5 h, 30 min) 75%; (1 h, 60 min) 71%; (2 h, 120 min) 52%; (3 h, 180 min) 43%; (4 h, 240 min) 0%. Moreover, the inhibition in vivo at 0.152 mg/kg (5 h, 300 min) was determined as 0%. Further, the inhibition in vivo at 0.304 mg/kg amounted to 100% (5 min, 5 min); 67% (0.5 h, 30 min); 0% (5 h, 300 min).

In the case of `CC(=O)OC(CNC(C)(C)C)c1ccc(OC(=O)c2ccc(C)cc2)c(OC(=O)c2ccc(C)cc2)c1` (stereo not drawn) [Example 134, 3,4-bis(p-toluyloxy)-alpha-(tert-butylaminomethyl)benzyl acetate], the inhibition in vivo at 0.075 mg/kg was found to be 25% (5 min, 5 min); 21% (0.5 h, 30 min); 5% (1 h, 60 min); 0% (2 h, 120 min); 0% (3 h, 180 min). Also, the inhibition in vivo at […] was found to be 54% (5 min, 5 min); 58% (0.5 h, 30 min); 52% (1 h, 60 min); 35% (2 h, 120 min); 20% (3 h, 180 min); 0% (4 h, 240 min). For the same compound, the inhibition in vivo at 0.3 mg/kg (5 min, 5 min) amounted to 47% and the inhibition in vivo at 0.3 mg/kg (4 h, 240 min) is 36%.
